Laboratory results published in the supplement of paper PMC11061612.

Experiments:
Assay in all cases: combination Emax (second highest fraction inhibited in the dose matrix, 72 h); higher = more inhibition; extreme values may be limits of the assay
[1] = test system: MDA-MB-436 (Breast Carcinoma)
Outline: (§1)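 Cell lines grown in DMEM/F12 or RPMI with 10% FBS were plated in 1536-well plates and held 24 hours at 37°C, 5% CO2 before 72 hours of exposure to two-drug dose matrices, with DMSO typically at 0.2%. CellTiter-Glo 2.0 luminescence gave viability, which was converted to inhibition. Vehicle wells were set to 0 and blank wells to 1. Combination Emax is the second-highest inhibition in the matrix, and Bliss excess is the observed combination effect minus the expected EA + EB − EA·EB, where EA and EB are the single-agent effects.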

[2] = test system: CA46 (Burkitt's Lymphoma)
Outline: as §1

[3] = test system: EPLC-272H (Other Solid Carcinomas)
Outline: as §1

[4] = test system: NCI-H1703 (Squamous Cell Lung Carcinoma)
Outline: as §1

[5] = test system: JIMT-1 (Breast Carcinoma)
Outline: as §1

[6] = test system: 5637 (Bladder Carcinoma)
Outline: as §1

[7] = test system: UACC-812 (Breast Carcinoma)
Outline: as §1

[8] = test system: HCC70 (Breast Carcinoma)
Outline: as §1

[9] = test system: CGTH-W-1 (Thyroid Gland Carcinoma)
Outline: as §1

[10] = test system: A204 (Rhabdomyosarcoma)
Outline: as §1

[11] = test system: NB13 (Neuroblastoma)
Outline: as §1

[12] = test system: JHU-022 (Oral Cavity Carcinoma)
Outline: as §1

[13] = test system: NCI-H2228 (Lung Adenocarcinoma)
Outline: as §1

[14] = test system: SW620 (Colorectal Carcinoma)
Outline: as §1

[15] = test system: AU565 (Breast Carcinoma)
Outline: as §1

[16] = test system: HCC1428 (Breast Carcinoma)
Outline: as §1

[17] = test system: NCI-H1651 (Lung Adenocarcinoma)
Outline: as §1

[18] = test system: EW-7 (Ewing's Sarcoma)
Outline: as §1

[19] = test system: KYSE-140 (Esophageal Squamous Cell Carcinoma)
Outline: as §1

[20] = test system: SK-HEP-1 (Hepatocellular Carcinoma)
Outline: as §1

| Structure (SMILES) | combination Emax [1] | combination Emax [2] | combination Emax [3] | combination Emax [4] | combination Emax [5] | combination Emax [6] | combination Emax [7] | combination Emax [8] | combination Emax [9] | combination Emax [10] | combination Emax [11] | combination Emax [12] | combination Emax [13] | combination Emax [14] | combination Emax [15] | combination Emax [16] | combination Emax [17] | combination Emax [18] | combination Emax [19] | combination Emax [20] |
| --- | --- | --- | --- | --- | --- | --- | --- | --- | --- | --- | --- | --- | --- | --- | --- | --- | --- | --- | --- | --- |
| Cn1cnc2c(F)c(Nc3ccc(Br)cc3Cl)c(C(=O)NOCCO)cc21 [Selumetinib] + CCN(CCO)CCCOc1ccc2c(Nc3cc(CC(=O)Nc4cccc(F)c4)[nH]n3)ncnc2c1 [AZD2811] (first compound max 10 µM, 7x7, partner max 1 µM) | 0.264 | 0.312 | 0.634 | 0.472 | 0.153 | 0.81 | 0.166 | 0.603 | 0.125 | 0.286 | 0.367 | 0.54 | 0.296 | 0.863 | 0.2 | 0.297 | 0.209 | 0.509 | 0.294 | 0.362 |
| Cn1cnc2c(F)c(Nc3ccc(Br)cc3Cl)c(C(=O)NOCCO)cc21 [Selumetinib] + C[C@@H]1COCCN1C2=NC(=NC(=C2)C3(CC3)[S@](=N)(=O)C)C4=C5C=CNC5=NC=C4 [AZD6738] (first compound max 10 µM, 7x7, partner max 10 µM) | 0.243 | 0.579 | 0.902 | 0.881 | 0.491 | 0.633 | 0.319 | 0.778 | 0.162 | 0.388 | 0.855 | 0.567 | 0.405 | 0.781 | 0.315 | 0.187 | 0.377 | 0.951 | 0.786 | 0.223 |
| CC(=O)Nc1cccc(-n2c(=O)n(C3CC3)c(=O)c3c(Nc4ccc(I)cc4F)n(C)c(=O)c(C)c32)c1 [Trametinib] + Cc1nc(-c2cn3c(n2)-c2ccc(-c4cnn(C(C)(C)C(N)=O)c4)cc2OCC3)n(C(C)C)n1 [Taselisib] (first compound max 1 µM, 7x7, partner max 10 µM) | 0.527 | 0.434 | 1 | 0.759 | 0.631 | 0.989 | 0.461 | 1 | 0.99 | 0.816 | 0.428 | 0.903 | 0.914 | 0.77 | 0.604 | 0.278 | 0.285 | 1 | 0.817 | 0.561 |
| CC1(C)CCC(CN2CCN(c3ccc(C(=O)NS(=O)(=O)c4ccc(NCC5CCOCC5)c([N+](=O)[O-])c4)c(Oc4cnc5[nH]ccc5c4)c3)CC2)=C(c2ccc(Cl)cc2)C1 [Venetoclax] + C1CN(CCC1(C(=O)N[C@@H](CCO)C2=CC=C(C=C2)Cl)N)C3=NC=NC4=C3C=CN4 [Capivasertib] (first compound max 1 µM, 7x7, partner max 3 µM) | 0.163 | 0.112 | 0.562 | 0.384 | 0.188 | 0.168 | 0.238 | 0.686 | 0.215 | 0.335 | 0.465 | 0.359 | 0.405 | 0.151 | 0.46 | 0.119 | 0.159 | 0.962 | 0.669 | 0.168 |
| CC1(C)CCC(CN2CCN(c3ccc(C(=O)NS(=O)(=O)c4ccc(NCC5CCOCC5)c([N+](=O)[O-])c4)c(Oc4cnc5[nH]ccc5c4)c3)CC2)=C(c2ccc(Cl)cc2)C1 [Venetoclax] + C=CCn1c(=O)c2cnc(Nc3ccc(N4CCN(C)CC4)cc3)nc2n1-c1cccc(C(C)(C)O)n1 [AZD1775] (first compound max 1 µM, partner max 1 µM) | 0.231 | 0.738 | 0.761 | 0.977 | 0.573 | 0.861 | 0.0382 | 0.805 | 0.377 | 0.325 | 0.928 | 0.388 | 0.494 | 0.51 | 0.672 | 0.22 | 0.589 | 0.974 | 0.814 | 0.34 |
| CC1(C)CCC(CN2CCN(c3ccc(C(=O)NS(=O)(=O)c4ccc(NCC5CCOCC5)c([N+](=O)[O-])c4)c(Oc4cnc5[nH]ccc5c4)c3)CC2)=C(c2ccc(Cl)cc2)C1 [Venetoclax] + CCN(CCO)CCCOc1ccc2c(Nc3cc(CC(=O)Nc4cccc(F)c4)[nH]n3)ncnc2c1 [AZD2811] (first compound max 1 µM, 7x7, partner max 1 µM) | 0.127 | 0.0318 | 0.371 | 0.523 | 0.284 | 0.607 | 0.186 | 0.616 | 0.272 | 0.368 | 0.548 | 0.292 | 0.253 | 0.229 | 0.181 | 0.451 | 0.233 | 0.887 | 0.367 | 0.27 |
| CC1(C)CCC(CN2CCN(c3ccc(C(=O)NS(=O)(=O)c4ccc(NCC5CCOCC5)c([N+](=O)[O-])c4)c(Oc4cnc5[nH]ccc5c4)c3)CC2)=C(c2ccc(Cl)cc2)C1 [Venetoclax] + CN(C)CCCOc1ccc(-c2ccc3ncc4c(c3c2)n(C2CCOCC2)c(=O)n4C)cn1 [AZD0156] (first compound max 1 µM, 7x7, partner max 1 µM) | 0.168 | 0 | 0.395 | 0.407 | 0.167 | 0.15 | 0.146 | 0.395 | 0.17 | 0.31 | 0.468 | 0.167 | 0.306 | 0.196 | 0.234 | 0.161 | 0.194 | 0.944 | 0.289 | 0.158 |
| CC1(C)CCC(CN2CCN(c3ccc(C(=O)NS(=O)(=O)c4ccc(NCC5CCOCC5)c([N+](=O)[O-])c4)c(Oc4cnc5[nH]ccc5c4)c3)CC2)=C(c2ccc(Cl)cc2)C1 [Venetoclax] + COc1cc(Nc2ncc3c(n2)-c2ccc(Cl)cc2C(c2c(F)cccc2OC)=NC3)ccc1C(=O)O [Alisertib] (first compound max 1 µM, 7x7, partner max 10 µM) | 0.246 | 0.436 | 0.514 | 0.554 | 0.268 | 0.778 | 0.224 | 0.412 | 0.598 | 0.431 | 0.932 | 0.382 | 0.396 | 0.387 | 0.504 | 0.339 | 0.269 | 0.932 | 0.423 | 0.349 |
| CC1(C)CCC(CN2CCN(c3ccc(C(=O)NS(=O)(=O)c4ccc(NCC5CCOCC5)c([N+](=O)[O-])c4)c(Oc4cnc5[nH]ccc5c4)c3)CC2)=C(c2ccc(Cl)cc2)C1 [Venetoclax] + C[C@@H]1COCCN1C2=NC(=NC(=C2)C3(CC3)[S@](=N)(=O)C)C4=C5C=CNC5=NC=C4 [AZD6738] (first compound max 1 µM, 7x7, partner max 10 µM) | 0.36 | 0.506 | 0.873 | 0.883 | 0.722 | 0.69 | 0.29 | 0.819 | 0.366 | 0.479 | 0.942 | 0.593 | 0.476 | 0.47 | 0.382 | 0.397 | 0.652 | 0.959 | 0.863 | 0.28 |
| CC1(C)CCC(CN2CCN(c3ccc(C(=O)NS(=O)(=O)c4ccc(NCC5CCOCC5)c([N+](=O)[O-])c4)c(Oc4cnc5[nH]ccc5c4)c3)CC2)=C(c2ccc(Cl)cc2)C1 [Venetoclax] + C[C@@H](Nc1cc(F)cc(F)c1)c1cc(C(=O)N(C)C)cc2c(=O)cc(N3CCOCC3)oc12 [AZD8186] (first compound max 1 µM, 7x7, partner max 3 µM) | 0.288 | 0.533 | 0.419 | 0.422 | 0.087 | 0.141 | 0.0679 | 0.532 | 0.116 | 0.327 | 0.253 | 0.314 | 0.293 | 0.0907 | 0.225 | 0.147 | 0.128 | 0.95 | 0.222 | 0.131 |
| CC1(C)CCC(CN2CCN(c3ccc(C(=O)NS(=O)(=O)c4ccc(NCC5CCOCC5)c([N+](=O)[O-])c4)c(Oc4cnc5[nH]ccc5c4)c3)CC2)=C(c2ccc(Cl)cc2)C1 [Venetoclax] + Cc1cc2ncnn2cc1Nc1ncc2c(n1)n(C1CCOCC1)c(=O)n2C [AZD7648] (first compound max 1 µM, 7x7, partner max 10 µM) | 0.22 | 0.132 | 0.514 | 0.465 | 0.242 | 0.251 | 0.22 | 0.399 | 0.259 | 0.408 | 0.368 | 0.221 | 0.4 | 0.175 | 0.295 | 0.139 | 0.191 | 0.95 | 0.398 | 0.219 |
| CC1(C)CCC(CN2CCN(c3ccc(C(=O)NS(=O)(=O)c4ccc(NCC5CCOCC5)c([N+](=O)[O-])c4)c(Oc4cnc5[nH]ccc5c4)c3)CC2)=C(c2ccc(Cl)cc2)C1 [Venetoclax] + Cn1cnc2c(F)c(Nc3ccc(Br)cc3Cl)c(C(=O)NOCCO)cc21 [Selumetinib] (first compound max 1 µM, 7x7, partner max 3 µM) | 0.111 | 0.403 | 0.506 | 0.178 | 0.14 | 0.264 | 0.0864 | 0.591 | 0.124 | 0.206 | 0.183 | 0.42 | 0.185 | 0.575 | 0.201 | 0.132 | 0.0964 | 0.887 | 0.233 | 0.234 |
